Here are results for 24 compounds from US20020155518A1, “Method of detecting compounds that control fungal diseases via effects on sporulation” (priority 2000, published 2002).

SMILES strings stand for the structures.

For experiment [1], the system named is Wheat Powdery Mildew (Blumeria [Erysiphe] graminis f.sp. tritici). The settings on record: in vivo. Also: key: '+++' =high control; '++' =moderate control; '+' =low control; '0'=no control.
Experiment [2] deals with Apple Scab (Venturia inaequalis). Briefly: Protectant foliar spray test against apple scab. Also: key: '+++' =high control; '++' =moderate control; '+' =low control; '0'=no control. Type of experiment: in vivo.
The subject of experiment [3] is Leptosphaeria (Septoria) nodorum. In words: Protectant foliar spray test against wheat L. nodorum blotch. Also: key: '+++' =high control; '++' =moderate control; '+' =low control; '0'=no control. Type of experiment: in vivo.
Experiment [4] has as its system Rice Blast (Magnaporthe grisea). The format is in vivo. The settings on record: foliar spray before inoculation, vs untreated inoculated controls.
The mark [5] stands for this setting: apple seedlings, foliar spray before inoculation, vs untreated inoculated controls.
Where [6] appears, read: wheat, foliar spray before inoculation, vs untreated inoculated controls.

Turning to `COc1cc(C)c(C(=O)c2c(OC)ccc(Br)c2C)c(OCc2ccccc2C)c1OC` [AA, (3-bromo-6-methoxy-2-methyiphenyl)[3,4-dimethoxy-6-methyl-2-[(2-methylphenyl)methoxy]phenyl]methanone], the “Level of Plant Disease Control, Wheat Powdery Mildew” value (from here on “Level … Wheat Powdery Mildew”) in experiment [1] was “+++”. The “Level of Plant Disease Control, Apple Scab” value (“Level … Apple Scab” below) in experiment [2] (setting [5]) is given as 0. In experiment [3] (setting [6]), the “Level of Plant Disease Control, Wheat L. nodorum” value (“Level … Wheat L. nodorum” for short) was determined as 0. Besides, in experiment [4], the “Level of Plant Disease Control, Rice Blast” value (“Level … Rice Blast” below) turned out to be 0.

Consider `CCCCOc1c(OC)cc(C)c(C(=O)c2c(Cl)cccc2Cl)c1OCCCC` [B, (2,3-dibutoxy-4-methoxy-6-methylphenyl)(2,6-dichlorophenyl)methanone], for which the “Level … Wheat Powdery Mildew” value in experiment [1] is “+++”. In experiment [2] (setting [5]), the “Level … Apple Scab” value is reported as 0. In addition, the “Level … Wheat L. nodorum” value in experiment [3] (setting [6]) turned out to be 0. For the same compound, the “Level … Rice Blast” value in experiment [4] was 0.

As for `CCCOc1c(OC)cc(C)c(C(=O)c2c(OC)ccc(Br)c2C)c1OCc1ccc(C(C)(C)C)cc1` [BB, (3-bromo-6-methoxy-2-methylphenyl)[4-methoxy-6-methyl-3-propoxy-2-[[4-(1,1-dimethylethyl)phenyl]methoxy]phenyl]methanone], the “Level … Wheat Powdery Mildew” value in experiment [1] is recorded as “+++”. Further, the “Level … Apple Scab” value in experiment [2] (setting [5]) was found to be 0. Further, the “Level … Wheat L. nodorum” value in experiment [3] (setting [6]) turned out to be 0. Besides, the “Level … Rice Blast” value in experiment [4] worked out at 0.

`COc1cc(C)c(C(=O)c2c(OC)ccc(Br)c2C)c(OCc2ccccc2F)c1OC` [C, (3-bromo-6-methoxy-2-methylphenyl)[3,4-dimethoxy-6-methyl-2-[(2-fluorophenyl)methoxy]phenyl]methanone]: in experiment [1], the “Level … Wheat Powdery Mildew” value is “+++”. Also, the “Level … Apple Scab” value in experiment [2] (setting [5]) is recorded as 0. Also, the “Level … Rice Blast” value in experiment [4] is recorded as “++”.

With `CCCOc1c(OC)cc(C)c(C(=O)c2c(OC)ccc(Br)c2C)c1OCc1ccc(C(F)(F)F)cc1` [CC, (3-bromo-6-methoxy-2-methylphenyl)[4-methoxy-6-methyl-3-propoxy-2-[[4-(trifluoromethyl)phenyl]methoxy]phenyl]methanone], in experiment [1], the “Level … Wheat Powdery Mildew” value is “+++”. Also, in experiment [2] (setting [5]), the “Level … Apple Scab” value was determined as 0. The “Level … Wheat L. nodorum” value in experiment [3] (setting [6]) is 0. In experiment [4], the “Level … Rice Blast” value is given as 0.

As to `COc1cc(C)c(C(=O)c2c(C)cccc2C)c(OCc2cccc(C)c2)c1OC` [Compound E, [3,4-dimethoxy-6-methyl-2-[(3-methylphenyl)methoxy]phenyl](2,6-dimethylphenyl)methanone], the “Level … Wheat Powdery Mildew” value in experiment [1] is “+++”.

`COc1cc(C)c(C(=O)c2c(O)ccc(Cl)c2C)c(OC)c1OC` [Compound N, (3-chloro-6-hydroxy-2-methylphenyl)(2,3,4-trimethoxy-6-methylphenyl)methanone]: the “Level … Wheat Powdery Mildew” value in experiment [1] is recorded as “+++”. Further, the “Level … Apple Scab” value in experiment [2] (setting [5]) was found to be 0. Moreover, in experiment [3] (setting [6]), the “Level … Wheat L. nodorum” value worked out at 0. Further, in experiment [4], the “Level … Rice Blast” value is “++”.

For the compound `COc1cc(C)c(C(=O)c2c(OC)ccc(Br)c2C)c(OCc2cccc(C)c2)c1OC` [Compound S, (3-bromo-6-methoxy-2-methylphenyl)[3,4-dimethoxy-6-methyl-2-[(3-methylphenyl)methoxy]phenyl]methanone], the “Level … Wheat Powdery Mildew” value in experiment [1] is “+++”.

Take `COc1cc(C)c(C(=O)c2c(Cl)cccc2Cl)c(OCc2ccc(F)cc2)c1OC` [D, (2,6-dichlorophenyl)[2-[(4-fluorophenyl)methoxy]-3,4-dimethoxy-6-methylphenyl]methanone]: the “Level … Wheat Powdery Mildew” value in experiment [1] was “+++”.

Turning to `CCCOc1c(OC)cc(C)c(C(=O)c2c(OC)ccc(Cl)c2C)c1O` [DD, (3-chloro-6-methoxy-2-methylphenyl)(2-hydroxy-4-methoxy-6-methyl-3-propoxyphenyl)methanone], the “Level … Wheat Powdery Mildew” value in experiment [1] is on record as “+++”. The “Level … Apple Scab” value in experiment [2] (setting [5]) is on record as 0. For the same compound, in experiment [3] (setting [6]), the “Level … Wheat L. nodorum” value amounted to 0. Further, the “Level … Rice Blast” value in experiment [4] was 0.

`COc1cc(C)c(C(=O)c2c(OC)ccc(Br)c2C)c(OCc2ccc(Cl)cc2)c1OC` [EE, (3-bromo-6-methoxy-2-methylphenyl)[3,4-dimethoxy-6-methyl-2-[(4-chlorophenyl)methoxy]phenyl]methanone]: the “Level … Wheat Powdery Mildew” value in experiment [1] is recorded as “+++”. The “Level … Apple Scab” value in experiment [2] (setting [5]) is reported as 0. Besides, in experiment [3] (setting [6]), the “Level … Wheat L. nodorum” value was 0. Besides, the “Level … Rice Blast” value in experiment [4] is recorded as 0.

Turning to `COc1cc(C)c(C(=O)c2c(C)ccc3ccccc23)c(OC)c1OC` [F, (2,3,4-trimethoxy-6-methylphenyl)(2-methyl-1-naphthalenyl)methanone], the “Level … Wheat Powdery Mildew” value in experiment [1] is given as “+++”. In experiment [2] (setting [5]), the “Level … Apple Scab” value was 0. The “Level … Wheat L. nodorum” value in experiment [3] (setting [6]) is given as 0. Further, the “Level … Rice Blast” value in experiment [4] is “++”.

For `COc1cc(C)c(C(=O)c2c(C)cccc2OC)c(OC)c1OC` [G, (2-methoxy-6-methylphenyl)(2,3,4-trimethoxy-6-methylphenyl)methanone], in experiment [1], the “Level … Wheat Powdery Mildew” value is reported as “+++”. The “Level … Apple Scab” value in experiment [2] (setting [5]) came out at 0. In experiment [3] (setting [6]), the “Level … Wheat L. nodorum” value was 0. Moreover, the “Level … Rice Blast” value in experiment [4] worked out at 0.

`COc1cc(C)c(C(=O)c2c(C)cccc2C)c(OCc2c(F)cc(F)cc2F)c1OC` [H, [3,4-dimethoxy-6-methyl-2-[(2,4,6-trifluorophenyl)methoxy]phenyl](2,6-dimethylphenyl)methanone]: in experiment [1], the “Level … Wheat Powdery Mildew” value is “+++”. For the same compound, in experiment [2] (setting [5]), the “Level … Apple Scab” value was 0. In addition, in experiment [3] (setting [6]), the “Level … Wheat L. nodorum” value is on record as 0. In experiment [4], the “Level … Rice Blast” value is 0.

For `COc1cc(C)c(C(=O)c2c(Cl)cccc2OC)c(OCc2cccc(C)c2)c1OC` [I, (2-chloro-6-methoxyphenyl)[3,4-dimethoxy-6-methyl-2-[(3-methylphenyl)methoxy]phenyl]methanone], the “Level … Wheat Powdery Mildew” value in experiment [1] is “+++”. Moreover, the “Level … Apple Scab” value in experiment [2] (setting [5]) is on record as “++”. The “Level … Wheat L. nodorum” value in experiment [3] (setting [6]) is listed as 0. Further, the “Level … Rice Blast” value in experiment [4] is recorded as “+”.

Regarding `COc1cc(C)c(C(=O)c2c(OC)ccc(Br)c2Cl)c(OC)c1OC` [J, (3-bromo-2-chloro-6-methoxyphenyl)(2,3,4-trimethoxy-6-methylphenyl)methanone], in experiment [1], the “Level … Wheat Powdery Mildew” value is “+++”. In addition, the “Level … Apple Scab” value in experiment [2] (setting [5]) was “+”. Moreover, the “Level … Wheat L. nodorum” value in experiment [3] (setting [6]) is 0. In addition, in experiment [4], the “Level … Rice Blast” value stood at 0.

As for `COc1cc(C(=O)c2c(Cl)cccc2Cl)c(C)cc1OC1CCCC1` [K, [4-(cyclopentyloxy)-5-methoxy-2-methylphenyl](2,6-dichlorophenyl)methanone], in experiment [1], the “Level … Wheat Powdery Mildew” value came to 0. Also, the “Level … Wheat L. nodorum” value in experiment [3] (setting [6]) was “+++”. In addition, the “Level … Rice Blast” value in experiment [4] stood at 0.

Turning to `COc1cc(C)c(C(=O)c2c(C)cccc2C)c(OC)c1OC` [L, (2,6-dimethylphenyl)(2,3,4-trimethoxy-6-methylphenyl)methanone], the “Level … Wheat Powdery Mildew” value in experiment [1] was “+++”. Also, the “Level … Apple Scab” value in experiment [2] (setting [5]) is 0. Also, the “Level … Wheat L. nodorum” value in experiment [3] (setting [6]) is on record as 0. In experiment [4], the “Level … Rice Blast” value was found to be 0.

Turning to `COc1cc(C)c(C(=O)c2c(OC)ccc(Br)c2C)c(OC)c1OC` [M, (3-bromo-6-methoxy-2-methylphenyl)(2,3,4-trimethoxy-6-methylphenyl)methanone], the “Level … Wheat Powdery Mildew” value in experiment [1] was “+++”. In addition, in experiment [2] (in vivo), the “Level … Apple Scab” value is given as “+++”. In addition, in experiment [3] (in vivo), the “Level … Wheat L. nodorum” value is on record as 0. Also, in experiment [4], the “Level … Rice Blast” value is given as 0.

Take `COc1cc(C)c(C(=O)c2c(C)cccc2C)c(OCc2ccccc2)c1OC` [O, [3,4-dimethoxy-6-methyl-2-(phenylmethoxy)phenyl](2,6-dimethylphenyl)methanone]: in experiment [1], the “Level … Wheat Powdery Mildew” value is reported as “+++”. Also, the “Level … Apple Scab” value in experiment [2] (setting [5]) worked out at 0. The “Level … Wheat L. nodorum” value in experiment [3] (setting [6]) is given as 0. Further, in experiment [4], the “Level … Rice Blast” value is reported as “++”.

`CCCCCOc1c(OC)cc(C)c(C(=O)c2c(OC)ccc(C)c2Cl)c1OC` [P, (2-chloro-6-methoxy-3-methylphenyl)[2,4-dimethoxy-6-methyl-3-(pentyloxy)phenyl]methanone]: the “Level … Wheat Powdery Mildew” value in experiment [1] is “+++”. For the same compound, the “Level … Apple Scab” value in experiment [2] (setting [5]) was 0. Besides, the “Level … Wheat L. nodorum” value in experiment [3] (setting [6]) came out at 0. The “Level … Rice Blast” value in experiment [4] is on record as “++”.

With `COc1cc(C)c(C(=O)c2c(C)ccc(Cl)c2C)c(OC)c1OC` [Q, (3-chloro-2,6-dimethylphenyl)(2,3,4-trimethoxy-6-methylphenyl)methanone], in experiment [1], the “Level … Wheat Powdery Mildew” value was “+++”. Moreover, the “Level … Apple Scab” value in experiment [2] (setting [5]) was “+”. Besides, the “Level … Wheat L. nodorum” value in experiment [3] (setting [6]) came out at 0. In addition, in experiment [4], the “Level … Rice Blast” value is reported as “++”.

With `COc1cc(C)c(C(=O)c2c(OC)ccc(Cl)c2C)c(OC)c1OC` [R, (3-chloro-6-methoxy-2-methylphenyl)(2,3,4-trimethoxy-6-methylphenyl)methanone], the “Level … Wheat Powdery Mildew” value in experiment [1] is given as “+++”. Further, in experiment [2] (setting [5]), the “Level … Apple Scab” value was determined as 0. Further, in experiment [3] (setting [6]), the “Level … Wheat L. nodorum” value amounted to 0. In experiment [4], the “Level … Rice Blast” value is “++”.

Turning to `COc1cc(C)c(C(=O)c2c(OC)ccc(C(F)(F)F)c2C)c(OC)c1OC` [T, [6-methoxy-2-methyl-3-(trifluoromethyl)phenyl](2,3,4-trimethoxy-6-methylphenyl)methanone], in experiment [1], the “Level … Wheat Powdery Mildew” value is listed as “+++”. The “Level … Apple Scab” value in experiment [2] (setting [5]) came out at 0. For the same compound, in experiment [3] (setting [6]), the “Level … Wheat L. nodorum” value amounted to 0. In experiment [4], the “Level … Rice Blast” value is 0.
